Measurements as given in patent US20060270607A1, “Pharmaceutical combinations” (priority 1999, published 2006).

What was measured:
[1] = test system: platelet P-selectin expression; assay: ADP-induced platelet P-selectin expression in human washed platelets; format: cell-based; details: ADP 10 μM, GR144053 10 μM, compound B 10 nM, Mean ± se (n = 3), Control 13.1 ± 3.3
Procedure: P-selectin expression on the platelet membrane surface plays an important role in platelet-leukocyte-conjugate formation and there is increasing evidence that such interactions play an important role in both acute thrombosis and in the inflammatory aetiology of progressive atheroscerosis. The effect of a P2T-receptor antagonist (compound B) on ADP (10 μM)-induced platelet P-selectin expression was investigated in human washed platelets. The effect of compound B (10 nM) was compared with that of the GPIIb/IIIa antagonist, GR144053 (10 μM, Foster et al (1993) Thromb Haemostas; 69(6):559, synthesized in AstraZeneca R & D, Charnwood). These concentrations are 4 (compound B)—and 600 (GR144053)—fold higher than the respective IC50 values for inhibition of ADP-induced platelet aggregation in this system.

[2] = test system: ADP-induced platelet aggregation; assay: ADP-induced platelet aggregation, whole blood impedance aggregometry; format: cell-based; details: human blood ex vivo; for Aggregation, ADP 10 μM, −compound A: n = 7-8
Procedure: Human Blood In Vitro—Compound A and Clopidogrel
Compound A (500 nM final concentration) was added to blood from healthy human volunteers receiving clopidogrel (Sanofi-Winthrop, 75 mg/day for 11 days). ADP-induced platelet aggregation (+/−compound A) was measured using whole blood impedance aggregometry.

SMILES	P-selectin expression (% positive cells) [1] [% positive cells]	Inhibition of the ADP response (in words) ([2]; clopidogrel alone, 75 mg/day for 11 days)	Aggregation, ADP 10 μM, −compound A ([2]; oral clopidogrel 75 mg/day for 1 day, mean ± SD) [ohms]	Aggregation, ADP 10 μM, −compound A ([2]; oral clopidogrel 75 mg/day for 2 days, mean ± SD) [ohms]	Aggregation, ADP 10 μM, −compound A ([2]; oral clopidogrel 75 mg/day for 3 days, mean ± SD) [ohms]	Aggregation, ADP 300 μM, −compound A ([2]; oral clopidogrel 75 mg/day for 3 days, n=1)	Aggregation, ADP 10 μM, −compound A ([2]; oral clopidogrel 75 mg/day for 11 days, mean ± SD) [ohms]	Aggregation, ADP 300 μM, −compound A ([2]; oral clopidogrel 75 mg/day for 11 days, mean ± SD, n=3)
Cl.Cl.Cl.N=C(N)c1ccc(N2CCN(C3CCN(CC(=O)O)CC3)CC2)cc1 [GR144053]	17.7 ± 1.7							
COC(=O)[C@H](c1ccccc1Cl)N1CCc2sccc2C1 [clopidogrel]		slowly developing, incomplete inhibition	13.8 ± 2.3	11.8 ± 3.4	10.2 ± 4.5	13.9^(n=1) ohms	8.2 ± 4.4	11.4 ± 5.2^(n=3) ohms
